Data from US10266482B2, “Long-term memory inducing agent” (NATIONAL UNIVERSITY CORPORATION TOKYO MEDICAL AND DENTAL …, priority 2017, dated 2019).

How the values were obtained:
[1] = Measurement of brain AMK level after intraperitoneal administration; assay type: in vivo, ICR mice; settings: 1 mg/kg bw intraperitoneal
Protocol: 8-week-old male ICR mice were purchased. Each of the experiment individuals was raised in an individual cage, and adapted to the raising environment for at least a week before use. The rearing room was kept at 22° C. at cycles of 12 hours of light period/12 hours of dark period, and feed and drinking water were given freely. All of the experiments were conducted during the latter 6 hours of the light period.
N(1)-acetyl-5-methoxykynuramine (AMK) was used as a drug. AMK was diluted with physiological saline. In the administration experiment, a dosage of 0.001 mg-1 mg/3.65 ml/kg bw was intraperitoneally administered.
1 mg/kg bw of AMK was intraperitoneally administered, and 5, 15, 30, 60, 120 and 240 minutes later, the hippocampus and a region including the perirhinal cortex of the temporal lobe that was assumed to be involved in object recognition memory were collected to measure the AMK levels with a high-performance liquid chromatograph mass spectrometer. As a control group, AMK levels in untreated individuals were also measured

aged mice = experiment: Object recognition test (ORT) with aged mice; assay type: in vivo, ICR mice; settings: for long-term memory formation (DI value, test trial 24 hours later): aged (14-month-old) mice
Protocol: 2-month-old male ICR mice (young mice) and 14-month-old male ICR mice (aged mice) were used. The rearing room was kept at 22° C. at cycles of 12 hours of light period/12 hours of dark period, and feed and drinking water were given freely. All of the experiments were conducted during the latter 6 hours of the light period.
N(1)-acetyl-5-methoxykynuramine (AMK) was used as a drug. AMK was diluted with physiological saline for the administration experiment with the aged mouse, and a dosage of 0.1 mg/kg bw or 1 mg/kg bw was intraperitoneally administered.
For an object recognition test, two each of two types of objects (height 6 cm×diameter 4 cm, height 7 cm×diameter 7 cm) and an observation box (height 30 cm×width 40 cm×depth 30 cm) were used. This test consisted of an acquisition trial and a test trial, and the experimental individuals were allowed to explore in the observation box 5 minutes a day for 3 days immediately before the experiment in order to adapt the experimental individuals to the observation box. In the acquisition trial, two identical objects were presented to the observation box and the experimental individuals were allowed to search for a minute. When the acquisition trials were conducted for more than one time, the acquisition trials were conducted at one-hour intervals. The test trial was conducted 24 hours or 4 days after the last acquisition trial. In the test trials, one of the two identical objects presented in the acquisition trials was exchanged with a different object (new object), and the experimental individuals were allowed to search for 5 minutes. During the test trials, the time that took each of the mice to search for the object was measured, and the ratio of the searching time of the two objects (DI value: discrimination index) was calculated according to the following formula to examine the relative cognitive levels to the new object. DI value (%)=Tn×100/(Tf+Tn)
One-sample t-test was employed to compare the DI value with the expected value (50%).

young crickets = experiment: Olfactory associative learning test in young crickets (single-time training, memory a day after); assay type: in vivo, Gryllus bimaculatus
Protocol: Male crickets about one week old (young) or three week old (aged) following molting into adult forms were used. Each of the crickets was placed into a 100 ml beaker three days before the experiment, and deprived of water for 2-3 days to enhance the desire of taking water. As the feed, about 10 pieces of insect feed were placed into the beaker.
A 1-ml syringe was used for smell and reward associative conditioning upon learning/training. The syringe contained water as the reward while a piece of paper (3 mm×3 mm) perfumed with peppermint essence was pierced into the needle to about 1 cm from the tip thereof. In this learning/training, the filter paper on the needle was brought near the antennae of the cricket to allow it to smell for 3 seconds and then a drop of water was put out from the tip of the needle and applied to the mouth of the cricket. When the associative conditioning was conducted for four times, the conditionings were conducted at intervals of 5 minutes.
Smell preference was examined by placing each cricket into a test arena. The arena consisted of a “standby chamber” and a “test chamber”. The floor of the “test chamber” had two holes each with a diameter of 4 cm which were communicated with two smell sources. The smell source was a plastic pot containing filter paper perfumed with essence of a smell (peppermint or vanilla) and covered with a gauze lid. In the preference test, each cricket was placed into the test chamber and allowed to walk freely for 4 minutes to search for the two smell sources. Two minutes after the start of the test, a rotary board having the smell sources was rotated to reverse the positions of the vanilla and the peppermint smells. During the test, the time the cricket spent placing its mouth to the gauze of the smell source was measured as a visiting time to the smell source, and the ratio of the visiting times of the two types of smells (PI value: preference index) was calculated according to the following formula to assess the relative preference to the mint smell. PI value=Tp/(Tp+Tv)×100 • Tp: Searching time for smell associated with the reward (peppermint) • Tv: Searching time for smell not associated with the reward (vanilla)
If the preferences for the two smells are equivalent, PI will be 50. Since crickets inherently prefer vanilla smell over peppermint smell, an average PI value prior to the learning/training is usually 25-35, The preference test was conducted before and after the learning/training to examine whether preference for the smell changes due to the learning/training.
As drugs, melatonin, N(1)-acetyl-N(2)-formyl-5-methoxykynuramine (AFMK), N(1)-acetyl-5-methoxykynuramine (AMK), 6-Hydroxymelatonin (6-HM), L-kynurenine, kynuramine, 8-Bromoguanoine 3′,5′-cyclic monophosphate sodium salt (8 br-cGMP) and cycloheximide (CHX) were used. Melatonin, 6-HM, kynurenine, kynuramine and 8br-cGMP were purchased from SIGMA Aldrich, AFMK was purchased from Cayman Chemical, AMK was purchased from Toronto Research Chemicals and CHX was purchased from Wako Pure Chemical Industries. The drugs other than 8br-cGMP and CHX were first dissolved in ethanol and then diluted with physiological saline for crickets to the respective concentrations. In the administration experiment, 3 μl was administered using a 10-μl syringe to the brain via an aperture opened through a simple eye of the head.
PI values were tested before the training and a day after the training in the same group by a Wilcoxon's-test.

crossing of the blood-brain barrier [1]: cross the blood-brain barrier | time to reach and act in the brain following intraperitoneal administration [1]: about 5 minutes | AMK concentration in hippocampus and perirhinal cortex as compared to the control group ([1]; within 5 minutes, thereafter decreased with time): significantly increased
Structure (SMILES): COc1ccc(N)c(C(=O)CCNC(C)=O)c1 [Compound 1, N-[3-(2-amino-5-methoxyphenyl)-3-oxopropyl]-acetamide]
long-term memory formation (DI value, test trial 24 hours later) (aged mice; 0.1 mg/kg bw i.p. 15 minutes after two one-minute acquisition trials): a long-term memory was formed | long-term memory formation (DI value, test trial 24 hours later) (aged mice; 1 mg/kg bw i.p. 15 minutes after one one-minute acquisition trial): a long-term memory was formed | duration of induced long-term memory (aged mice; aged mice, 1 mg/kg bw i.p. 15 minutes after one acquisition trial, test trials 1 and 4 days later): at least 4 days | long-term memory formation a day after the training (young crickets; 8 nM, 3 μl to the brain, 20 minutes after single-time training): not | sufficient concentration relative to the concentration of melatonin (young crickets; 40 nM AMK versus 5 μM melatonin): 1/125 | long-term memory formation a day after the training (young crickets; 40 nM, 3 μl to the brain, 20 minutes after single-time training): formed | long-term memory formation a day after the training (young crickets; 0.2 μM, 3 μl to the brain, 20 minutes after single-time training): formed | long-term memory formation a day after the training (young crickets; 1 μM, 3 μl to the brain, 20 minutes after single-time training): formed | long-term memory formation a day after the training (young crickets; 1 μM, 3 μl, administered between 20 minutes and 80 minutes after single-time training): a long-term memory was formed | long-term memory formation a day after the training (young crickets; 5 μM, 3 μl to the brain, 20 minutes after single-time training, listed as AMK): long-term memories were formed | long-term memory formation a day after the training (young crickets; 5 μM, 3 μl to the brain, 20 minutes before single-time training): long-term memories were formed | administration concentration sufficient to form long-term memory (young crickets; 3 μl to the brain 20 minutes after single-time training): 40 nM | timing of administration sufficient to form long-term memory (young crickets; time following the single-time training, melatonin and AFMK 5 μM, AMK 1 μM): up to 80 minutes
